The test system of one assay is CaSte2. Conditions: for Hill Slope: CaSte2 (yTC384), no protease, Hill function best-fit ± standard error; for response of CaSte2 / EC50 compared to the native CaPep: alanine scan, system without CaBar1 (yTC384).
Assay [1] concerns CaSte2 with protease CaBar1. To be noted: CaSte2 + CaBar1 (yBB02); Hill function best-fit ± standard error.
In a further assay the target is ScSte2 (Saccharomyces cerevisiae, UniProt D6VTK4). The assay is described as follows: ScSte2 biosensor dose-response, ymTurquoise2 readout, no protease (incl. ScPep alanine scan, yTC391). Conditions: Hill function best-fit ± standard error. It is filed as cell-based.
Chain of ScSte2 (D6VTK4 whole entry): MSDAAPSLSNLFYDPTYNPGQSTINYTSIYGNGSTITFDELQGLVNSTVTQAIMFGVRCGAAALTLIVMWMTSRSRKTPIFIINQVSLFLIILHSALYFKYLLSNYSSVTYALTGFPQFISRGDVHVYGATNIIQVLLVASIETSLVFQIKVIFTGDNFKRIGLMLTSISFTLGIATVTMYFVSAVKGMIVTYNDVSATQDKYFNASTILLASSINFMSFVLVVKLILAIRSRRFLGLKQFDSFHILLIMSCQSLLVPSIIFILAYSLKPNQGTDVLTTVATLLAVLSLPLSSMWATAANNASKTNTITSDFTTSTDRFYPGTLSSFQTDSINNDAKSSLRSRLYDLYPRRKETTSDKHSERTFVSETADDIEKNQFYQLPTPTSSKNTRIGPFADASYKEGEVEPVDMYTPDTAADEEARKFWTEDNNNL
The target of assay [2] is ScSte2 with protease ScBar1 (Saccharomyces cerevisiae, UniProt D6VTK4). Type of assay: cell-based.
Chain of ScSte2 with protease ScBar1 (D6VTK4 whole entry): as above
For assay [3], the target named is T1, Candida albicans pheromone GPCR CaSte2 (Candida albicans).
T1 sequence: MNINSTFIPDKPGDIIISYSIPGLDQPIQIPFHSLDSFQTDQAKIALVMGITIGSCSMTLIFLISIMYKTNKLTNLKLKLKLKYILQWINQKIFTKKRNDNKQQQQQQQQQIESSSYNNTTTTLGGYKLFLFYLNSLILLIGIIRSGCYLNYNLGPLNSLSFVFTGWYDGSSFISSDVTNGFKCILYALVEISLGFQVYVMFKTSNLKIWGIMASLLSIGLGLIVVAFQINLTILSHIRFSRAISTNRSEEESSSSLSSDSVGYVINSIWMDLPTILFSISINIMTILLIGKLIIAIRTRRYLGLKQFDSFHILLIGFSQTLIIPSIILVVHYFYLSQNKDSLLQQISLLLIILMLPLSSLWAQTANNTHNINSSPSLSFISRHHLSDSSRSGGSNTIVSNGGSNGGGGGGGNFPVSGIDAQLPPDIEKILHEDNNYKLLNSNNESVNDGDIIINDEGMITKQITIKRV
The assay is described as follows: cell-based or functional assay.

Assay [4] has as its target T2, Saccharomyces cerevisiae pheromone GPCR ScSte2 (Saccharomyces cerevisiae) (UniProt D6VTK4).
T2 sequence: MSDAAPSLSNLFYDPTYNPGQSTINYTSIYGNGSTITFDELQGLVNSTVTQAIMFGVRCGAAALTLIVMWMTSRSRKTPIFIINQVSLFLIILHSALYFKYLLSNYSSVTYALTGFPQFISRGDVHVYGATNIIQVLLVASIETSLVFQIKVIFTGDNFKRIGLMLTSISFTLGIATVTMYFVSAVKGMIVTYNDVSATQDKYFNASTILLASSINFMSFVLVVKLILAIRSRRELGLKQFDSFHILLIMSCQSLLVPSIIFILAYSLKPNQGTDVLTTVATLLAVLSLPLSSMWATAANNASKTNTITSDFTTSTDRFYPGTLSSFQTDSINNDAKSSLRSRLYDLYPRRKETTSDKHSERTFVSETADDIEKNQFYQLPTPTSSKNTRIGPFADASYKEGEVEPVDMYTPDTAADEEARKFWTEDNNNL
The assay is described as follows: cell-based or functional assay.

Assay [5] deals with T3, A. fumigatus pheromone GPCR (AfuSte2) (Aspergillus fumigatus).
T3 sequence: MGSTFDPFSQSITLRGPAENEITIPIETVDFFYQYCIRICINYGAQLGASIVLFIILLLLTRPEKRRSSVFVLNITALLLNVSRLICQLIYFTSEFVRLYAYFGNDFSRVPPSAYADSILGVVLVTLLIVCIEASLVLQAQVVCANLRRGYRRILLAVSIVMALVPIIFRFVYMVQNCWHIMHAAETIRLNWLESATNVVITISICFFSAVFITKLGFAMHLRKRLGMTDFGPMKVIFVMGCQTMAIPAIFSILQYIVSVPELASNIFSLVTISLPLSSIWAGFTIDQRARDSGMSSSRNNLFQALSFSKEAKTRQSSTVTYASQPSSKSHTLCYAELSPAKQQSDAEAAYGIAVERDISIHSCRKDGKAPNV
The assay is described as follows: cell-based or functional assay.

Values joined by “and” are separate entries in the source; they are usually repeats but may differ in a detail not shown here. Identical values can stand only once. No end group written: not given here.

With AFRLTNFGYFEPG [CaPep1A], the “Hill Slope” value in the assay on CaSte2 was found to be 3.0 ± 0.4; in assay [1] it was 1.1 ± 0.22.

Take AHWLQLKPGQPMY [ScPep1A]: the “Hill Slope” value at ScSte2 was found to be 3.4 ± 0.8. In addition, in assay [2], the Bottom was −3.1 ± 5.8 A.U, the “Hill Slope” value is on record as 0.76 ± 0.06, the LogEC50 is −5.9 ± 0.1 M and the Top worked out at 350 ± 10 A.U.

For the substance C. albicans pheromone peptide (CaPep), in assay [3], the EC50, lycopene readout, strains preincubated, +CaBar1 amounted to 4000 nM; the EC50, ymTurquoise2, biosensor with CaBar1 (pRPL18B) was determined as 90 nM; the EC50, ymTurquoise2, biosensor without protease came out at 7 nM; the LogEC50 was -7.2 log M. Further, the Top in assay [3] is 460 A.U. and 420 A.U.

As for CaPep1A (peptide), in assay [3], the Top is 460 A.U. and 410 A.U.

Take CaPep2A13A (peptide): in assay [3], the EC50, ymTurquoise2, strain with the protease CaBar1 was 70 nM; the EC50, ymTurquoise2, strain without the protease is 50 nM; the LogEC50 is -7 log M and -6.5 log M; the Top is 790 A.U. and 680 A.U.

With CaPep3A (peptide), the Top in assay [3] amounted to 460 A.U.

Take CaPep4A (peptide): in assay [3], the LogEC50 is -6.5 log M and -6.1 log M; the Top was 460 A.U. and 410 A.U.

Turning to CaPep5A (peptide), in assay [3], the LogEC50 was -5.2 log M and -4.9 log M; the Top is 15 A.U. and 13 A.U.

As to CaPep6A (peptide), in assay [3], the LogEC50 is -6.2 log M and -5.9 log M; the Top was 570 A.U. and 450 A.U.

On to CaPep7A (peptide), for which, in assay [3], the LogEC50 is -5.5 log M and -5.6 log M; the Top is 34 A.U. and 17 A.U.

Turning to CaPep8A (peptide), the Top in assay [3] was 640 A.U. and 460 A.U.

As to CaPep9A (peptide), the Top in assay [3] was 700 A.U. and 480 A.U.

With GFALTNFGYFEPG [CaPep3A], the “Hill Slope” value in the assay with CaSte2 amounted to 2.0 ± 0.1; in assay [1] it was 0.74 ± 0.08.

On to GFRATNFGYFEPG [CaPep4A], for which the figures for the “Hill Slope” value (in the assay with CaSte2; in assay [1]) were 1.3 ± 0.1 and 2.4 ± 0.4, respectively.

GFRLANFGYFEPG [CaPep5A]: in the assay on CaSte2, the “Hill Slope” value is 2.7 ± 0.7 and the “response of CaSte2” value is on record as “practically non-responsive”.

Consider GFRLTAFGYFEPG [CaPep6A], for which the results for the “Hill Slope” value (in the assay with CaSte2; in assay [1]) were 4.4 ± 0.4 and 1.7 ± 0.2, respectively.

GFRLTNAGYFEPG [7A]: the figures for the “Hill Slope” value (with CaSte2; in assay [1]) were 1.4 ± 0.1 and 2.2 ± 0.4, respectively. Besides, the “response of CaSte2” value in the assay with CaSte2 is listed as “practically non-responsive”.

As for GFRLTNFAYFEPG [CaPep8A], the results for the “Hill Slope” value (in the assay with CaSte2; in assay [1]) were 1.3 ± 0.3 and 1.0 ± 0.1, respectively.

With GFRLTNFGAAEPG [9A10A], in the assay on CaSte2, the “Hill Slope” value is given as 0.99 ± 0.04 and the “EC50 compared to the native CaPep” value was “more than two orders of magnitude higher EC50”. Further, in assay [1], the “Hill Slope” value was 1.0 ± 0.1.

GFRLTNFGAFEPG [CaPep9A]: the “Hill Slope” value in the assay with CaSte2 came out at 1.9 ± 0.1; in assay [1] it was 1.7 ± 0.2.

On to GFRLTNFGYAEPG [CaPep10A], for which, in the assay with CaSte2, the “Hill Slope” value is 2.8 ± 0.5 and the “EC50 compared to the native CaPep” value is on record as “more than two orders of magnitude higher EC50”. Also, the “Hill Slope” value in assay [1] is 2.6 ± 0.13.

Take GFRLTNFGYFAPG [CaPep11A]: in assay [1], the “Hill Slope” value worked out at 1.5 ± 0.2.

Consider GFRLTNFGYFEAA [12A13A], for which the “Hill Slope” value in the assay with CaSte2 is 2.8 ± 0.1; in assay [1] it was 1.8 ± 0.1. Further, the “EC50 compared to the native CaPep” value with CaSte2 is “more than two orders of magnitude higher EC50”.

Take GFRLTNFGYFEAG [12A]: the “Hill Slope” value is 0.95 ± 0.04 with CaSte2 and 1.1 ± 0.1 in assay [1]. Besides, in the assay on CaSte2, the “EC50 compared to the native CaPep” value is reported as “more than two orders of magnitude higher EC50”.

Consider S. cerevisiae pheromone peptide (ScPep), for which, in assay [4], the EC50 (mCherry/OD600) turned out to be 2 nM; the Top is 380 A.U. and 390 A.U.

Regarding ScPep1A (peptide), in assay [4], the Top was 320 A.U. and 350 A.U.

For ScPep2A (peptide), the Top in assay [4] was 270 A.U. and 350 A.U.

Take ScPep3A (peptide): in assay [4], the Top was 280 A.U. and 370 A.U.

With ScPep4A (peptide), the Top in assay [4] is 250 A.U. and 340 A.U.

Turning to ScPep5A (peptide), the Top in assay [4] was 380 A.U. and 340 A.U.

With ScPep6A (peptide), the Top in assay [4] is 310 A.U. and 390 A.U.

For ScPep7A (peptide), the Top in assay [4] was 400 A.U. and 380 A.U.

Take ScPep8A (peptide): in assay [4], the Top is 430 A.U. and 440 A.U.

ScPep9A (peptide): the Top in assay [4] was 370 A.U. and 440 A.U.

As for ScPep10A (peptide), the Top in assay [4] was 380 A.U. and 420 A.U.

Regarding ScPep11A (peptide), the Top in assay [4] was 410 A.U.

Regarding ScPep12A (peptide), the Top in assay [4] was 410 A.U. and 450 A.U.

In the case of ScPep13A (peptide), the Top in assay [4] was 360 A.U. and 490 A.U.

For the substance “Scα-Smt3 (α-factor fused to the N-terminus of full-length Smt3, 6x-His-tag at the opposite terminus) (from UniProt Q12306 2-98)”, the EC50 (mCherry/OD600) in assay [4] amounted to 149 nM.

The substance “Smt3-Scα (α-factor fused to the C-terminus of full-length Smt3, 6x-His-tag at the opposite terminus) (from UniProt Q12306 1-98)” yielded an EC50 (mCherry/OD600) in assay [4] of 208 nM.

For the substance “Smt3-Scα-Smt3 (two Smt3 fused in tandem with an α-factor linker, N-terminus 6x-His-tag) (from UniProt Q12306 1-98; Q12306 2-98)”, in assay [4], the EC50 (mCherry/OD600) was 1080 nM.

Take WAWLQLKPGQPMY [ScPep2A]: at ScSte2, the “Hill Slope” value was 3.7 ± 0.2. Moreover, in assay [2], the Bottom turned out to be 5.9 ± 3.0 A.U, the “Hill Slope” value worked out at 1.5 ± 0.1, the LogEC50 is listed as −5.0 ± 0.1 M and the Top was found to be 350 ± 10 A.U.

For the substance WHALQLKPGQPMY [ScPep3A], the “Hill Slope” value at ScSte2 came out at 2.5 ± 0.1. In assay [2], the Bottom was determined as 6.4 ± 2.6 A.U, the “Hill Slope” value is 0.74 ± 0.05, the LogEC50 is −4.6 ± 0.1 M and the Top was 370 ± 20 A.U.

On to WHWAQLKPGQPMY [ScPep4A], for which, in assay [2], the Bottom is −1.6 ± 2.9 A.U, the “Hill Slope” value is listed as 0.72 ± 0.04, the LogEC50 is given as −5.4 ± 0.1 M and the Top was 340 ± 10 A.U.

As for WHWLALKPGQPMY [ScPep5A], the “Hill Slope” value on ScSte2 is given as 3.4 ± 0.3. In assay [2], the Bottom was 0.52 ± 8.7 A.U, the “Hill Slope” value is listed as 1.2 ± 0.2, the LogEC50 is −6.3 ± 0.1 M and the Top stood at 340 ± 10 A.U.

Consider WHWLQAKPGQPMY [ScPep6A], for which, at ScSte2, the “Hill Slope” value stood at 5.6 ± 0.7. In addition, in assay [2], the Bottom came to 0.38 ± 5.71 A.U, the “Hill Slope” value came to 0.99 ± 0.10, the LogEC50 was −5.5 ± 0.1 M and the Top was 390 ± 10 A.U.

As to WHWLQLKPGQPAY [ScPep12A], in assay [2], the Bottom is 2.5 ± 2.9 A.U, the “Hill Slope” value was 1.3 ± 0.1, the LogEC50 is on record as −6.0 ± 0.1 M and the Top is 450 ± 10 A.U.

Regarding “synthetic A. fumigatus pheromone peptide (AfuPep)”, in assay [5], the EC50, GFP of the sender strain came out at 4 nM; the EC50, mCherry reporter in yeast was found to be 100 nM; the EC50, mCherry, fine-tuned optimized strain worked out at 40 nM; the EC50, mCherry, strain with natural signaling pathway is 10 nM. In assay [5], the LoD, lycopene readout, yTC590 amounted to 50 nM; the activation fold change, fine-tuned optimized strain was 2900 fold; the activation fold change, strain with natural signaling pathway was 19 fold; the fold change of fluorescence readout was 4000 fold. In assay [5], the limit of detection (LoD), lycopene readout, yTC527 stood at 30 nM; the maximal activation, mCherry, fine-tuned optimized strain is 2900 A.U; the maximal activation, mCherry, strain with natural signaling pathway (yMJ194) came out at 450 A.U.

(Values after patent publication US20240368664A1, “LIVE YEAST BIOSENSORS AND METHODS OF USE THEREOF” (priority 2021, published 2024).)
